# Bridge positions count the residues as written; N and C are the ends. Ends that are not written are not given here. * marks the point of attachment. CH2F = FC*
# Experiments:
# Plasmin [1] = molecular target: T1, Plasmin (Homo sapiens, UniProt P00747); assay: Display-phage binding to plasmin target (specificity); conditions: compared to the parental phage display LACI-K1
# Thrombin = Thrombin (Homo sapiens, UniProt P00734); assay: Display-phage binding to thrombin target (specificity); conditions: compared to the parental phage display LACI-K1
# Trypsin [2] = assay: Display-phage binding to trypsin target (specificity); conditions: compared to the parental phage display LACI-K1
# plasma Kallikrein [3] = molecular target: T2, plasma Kallikrein (Homo sapiens, UniProt P03952); assay: Display-phage binding to human plasma kallikrein-agarose beads; set-up: The light chain (248 residues) carries the catalytic site; purchased Calbiochem #420302
# Description: This method is highly sensitive because the genetic packages can be amplified. We obtain at least semiquantitative values for the binding constants by use of a pH step gradient.
# The overall scheme for selecting a LACI(K1) variant to bind to a given protease involves incubation of the phage-display library with the kallikrein-beads of interest in a buffered solution (PBS containing 1 mg/ml BSA) followed by washing away the unbound and poorly retained display-phage variant with PBS containing 0.1% Tween 20. Kallikrein beads were made by coupling human plasma Kallikrein (Calbiochem, San Diego, Calif., #420302) to agarose beads using Reactigel (6×) (Pierce, Rockford, Ill., #202606). […]
# The neutralized eluted display-phage can be either used: • i) to inoculate an F^+ strain of E. coli to generate a new display-phage stock, to be used for subsequent rounds of selection (so-called conventional screening), or • ii) be used directly for another immediate round of selection with the protease beads (so-called quick screening). Typically, three rounds of either method, or a combination of the two, are performed to give rise to the final selected display-phage from which a representative number are sequenced and analyzed for binding properties either as pools of display-phage or as individual clones.
# Target sequence in this assay (P03952 391-638 limits assumed): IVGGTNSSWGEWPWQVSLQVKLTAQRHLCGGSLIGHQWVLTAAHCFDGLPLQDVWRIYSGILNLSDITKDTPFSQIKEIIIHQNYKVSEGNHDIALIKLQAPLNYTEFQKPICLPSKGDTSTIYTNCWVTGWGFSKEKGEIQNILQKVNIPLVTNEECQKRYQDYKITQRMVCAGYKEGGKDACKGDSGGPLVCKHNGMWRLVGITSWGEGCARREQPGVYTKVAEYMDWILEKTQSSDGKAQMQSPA
# Target sequence in this assay (P03952 20-390 limits assumed): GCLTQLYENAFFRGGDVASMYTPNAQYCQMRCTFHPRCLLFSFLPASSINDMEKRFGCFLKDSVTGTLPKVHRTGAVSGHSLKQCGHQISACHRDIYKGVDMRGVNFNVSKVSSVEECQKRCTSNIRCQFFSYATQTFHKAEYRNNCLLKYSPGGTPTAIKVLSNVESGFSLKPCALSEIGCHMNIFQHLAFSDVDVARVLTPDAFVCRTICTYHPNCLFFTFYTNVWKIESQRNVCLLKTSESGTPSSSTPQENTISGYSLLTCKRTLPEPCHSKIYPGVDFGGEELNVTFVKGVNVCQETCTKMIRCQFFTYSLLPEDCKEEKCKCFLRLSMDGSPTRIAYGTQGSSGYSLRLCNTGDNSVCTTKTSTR
# plasma Kallikrein [4] = molecular target: T2, plasma Kallikrein; conditions: ANGL87; cited from earlier work
# Target sequence in this assay (P03952 20-390): as the sequence (P03952 20-390 limits assumed) above
# Target sequence in this assay (P03952 391-638): as the sequence (P03952 391-638 limits assumed) above
# Trypsin [5] = conditions: ANGL87; cited from earlier work
# Plasmin [6] = molecular target: T1, Plasmin; assay: biochemical
# Source text: (§1) A second method appropriate for measuring the affinity of inhibitors for enzymes is to measure the ability of the inhibitor to slow the action of the enzyme. This method requires, depending on the speed at which the enzyme cleaves substrate and the availability of chromogenic or fluorogenic substrates, tens of micrograms to milligrams of relatively pure inhibitor.
# pKA (plasma kallikrein) = pKA (plasma kallikrein) (Homo sapiens, UniProt P03952); assay: biochemical
# pKA (plasma kallikrein), sequence (P03952 391-638 limits assumed): as above
# pKA (plasma kallikrein), sequence (P03952 20-390 limits assumed): as the sequence (P03952 20-390 limits assumed) above
# Source text: as §1
# T1 sequence (P00747 581-810 limits assumed, species assumed): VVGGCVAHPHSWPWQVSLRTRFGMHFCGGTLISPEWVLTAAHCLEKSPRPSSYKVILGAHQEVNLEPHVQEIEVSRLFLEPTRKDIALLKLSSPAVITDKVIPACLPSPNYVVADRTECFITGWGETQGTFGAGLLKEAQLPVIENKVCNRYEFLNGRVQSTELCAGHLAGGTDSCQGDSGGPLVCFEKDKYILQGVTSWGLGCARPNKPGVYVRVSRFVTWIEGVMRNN
# T1 sequence (P00747 97-580 partner limits assumed, species assumed): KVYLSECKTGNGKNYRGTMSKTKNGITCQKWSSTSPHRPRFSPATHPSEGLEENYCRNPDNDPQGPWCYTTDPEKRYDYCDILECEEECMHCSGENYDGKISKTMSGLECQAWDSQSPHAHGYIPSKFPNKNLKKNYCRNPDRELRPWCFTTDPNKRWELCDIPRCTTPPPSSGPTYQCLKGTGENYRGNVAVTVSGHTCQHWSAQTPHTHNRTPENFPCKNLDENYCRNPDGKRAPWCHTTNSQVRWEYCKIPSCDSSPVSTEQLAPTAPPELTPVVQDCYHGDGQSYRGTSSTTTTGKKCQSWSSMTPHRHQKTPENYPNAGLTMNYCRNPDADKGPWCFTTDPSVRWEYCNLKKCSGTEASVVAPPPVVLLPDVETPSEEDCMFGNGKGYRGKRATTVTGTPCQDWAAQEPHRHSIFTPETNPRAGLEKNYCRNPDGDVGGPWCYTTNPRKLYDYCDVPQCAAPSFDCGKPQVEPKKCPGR
substance,measurement,setting,value
bovine pancreatic trypsin inhibitor [BPTI],"relative binding of phage display clones, target Plasmin",Plasmin [1],(88)^4
same,"relative binding of phage display clones, target Thrombin",Thrombin,(1.1)
same,"relative binding of phage display clones, target Trypsin",Trypsin [2],(0.3)
same,"relative binding of phage display clones, target Trypsin, two washes",Trypsin [2]; two washes,(0.8)
same,"relative binding of phage display clones, target Kallikrein",plasma Kallikrein [3]; compared to the parental phage display LACI-K1,(1.7)
same,Relative Binding,plasma Kallikrein [3]; fraction bound relative to the parental display-phage LACI(K1),6.0
Ala-Phe-Lys-CH2F,inhibition of plasma kallikrein,plasma Kallikrein [4],active-centre-directed inhibitor
same,inhibition of trypsin,Trypsin [5],active-centre-directed inhibitor
"MHSFCAFKADDGHCKANHQRFFFNIFTRQCEEFSYGGCGGNQNRFESLEECKKMCTRD (disulfide 5-55, 14-38, 30-51) [KKII/3#6]",Ki,Plasmin [6],10 µM
same,Ki,pKA (plasma kallikrein),< 0.0005 µM
same,Ki for kallikrein,pKA (plasma kallikrein); stated in words,nanomolar range
same,Ki for kallikrein relative to wild-type LACI and BPTI,pKA (plasma kallikrein); versus both wild-type LACI and BPTI,over 100 times
